Experiment [1] concerns 6-hydroxydopamine-lesioned rats (nigroneostriatal-lesioned). In words: Turning behavior in 6-hydroxydopamine-lesioned rats (Table 2). In kind it is in vivo, rat. To be noted: for Average No. of turns per rat: first 15 minutes after end of latency period. An excerpt:
In this test, nigroneostriatal-lesioned rats are employed, as prepared by the procedure of Ungerstedt and Arbuthnott, Brain Res, 24, 485 (1970). A compound having dopamine agonist activity causes the rats to turn in circles contralateral to the side of the lesion. After a latency period, which varies from compound to compound, the number of turns is counted over a 15-minute period.

The test system of another experiment is prolactin secretion. In words: Inhibition of prolactin secretion in reserpine-treated male rats (Table 1). In kind it is in vivo, rat (Sprague-Dawley). To be noted: 50 mcg/kg i.p., 1 h after treatment. The procedure:
As previously stated, the drugs of this invention as represented by formulas I and III above are D-2 dopamine agonists.
Adult male rats of the Sprague-Dawley strain weighing about 200 g. were housed in an air-conditioned room with controlled lighting (lights on 6 a.m.-8 p.m.) and fed lab chow and water ad libitum. Each rat received an intraperitoneal injection of 2.0 mg. of reserpine in aqueous suspension 18 hours before administration of the test drug. The purpose of the reserpine was to keep the rat prolactin levels uniformly elevated. The compound was dissolved in 10 percent ethanol, and injected intraperitoneally at doses of 0.017, 0.03, 0.17 and 0.3μ moles/kg. The compound was administered at each dose level to a group of 10 rats, and a control group of 10 intact males received an equivalent amount of 10 percent ethanol. One hour after treatment, all rats were killed by decapitation, and 150 μl aliquots of serum were assayed for prolactin.
The difference between the prolactin level of the treated rats and prolactin level of the control rats, divided by the prolactin level of the control rats, gives the percent inhibition of prolactin secretion attributable to the given dose. Inhibition percentages are given in Tables 1 and 2 below for compounds according to I or III above respectively. […]

Regarding `CCCN1CCC[C@H]2Cc3nc(N4CCCC4)sc3C[C@@H]21` (racemic) [n-Pr, 1-pyrrolidinyl, FB, Trans-(±), Trans-(±)-2-(1-pyrrolidinyl)-5-n-propyl-4,4a,5,6,7,8,8a,9-octahydrothiazolo[4,5-g]quinoline], in experiment [1] (dose 1000 mcg/kg), the “% Rats exhibiting turning behaviour” value is given as 100% and the “Average No. of turns per rat” value stood at 67 turns per rat.
The corresponding values for `CCCN1CCC[C@H]2Cc3nc(Br)sc3C[C@@H]21` (racemic) [n-Pr, Br, 2HCl, Trans-(±), Trans-(±)-2-bromo-5-n-propyl-4,4a,5,6,7,8,8a,9-octahydrothiazolo[4,5-g]quinoline] are 100% and 42 turns per rat.
Turning to `CCCN1CCC[C@H]2Cc3ncsc3C[C@@H]21.Cl.Cl` (racemic) [n-Pr, H, 2HCl, trans-(±), trans-(±)-5-n-propyl-4,4a,5,6,7,8,8a,9-octahydrothiazolo[4,5-g]quinoline dihydrochloride], the results for the “% Rats exhibiting turning behaviour” value in experiment [1] (dose 20 mcg/kg), in experiment [1] (dose 100 mcg/kg) and in experiment [1] (dose 1000 mcg/kg) were 25%, 100% and 100%, respectively. In addition, the figures for the “Average No. of turns per rat” value in experiment [1] (dose 20 mcg/kg), in experiment [1] (dose 100 mcg/kg) and in experiment [1] (dose 1000 mcg/kg) were 16 turns per rat, 44 turns per rat and 100 turns per rat, respectively.
Regarding `CCC[N+]1(C)CCCC2Cc3scnc3CC21.I.[I-]` (racemic) [n-Pr, H, HI methiodide, trans-(±), trans-(±)-5-n-propyl-4,4a,5,6,7,8,8a,9-octahydrothiazolo[4,5-g]quinolinium methiodide hydroiodide], the “Percent Inhibition of Prolactin Secretion” value with prolactin secretion is on record as 30%.
Consider `CCCN1CCC[C@H]2Cc3nc(N(C)C)sc3C[C@@H]21` (racemic) [n-Pr, N(CH3)2, 2HCl, trans (±), trans-(±)-2-dimethylamino-5-n-propyl-4,4a,5,6,7,8,8a,9-octahydrothiazolo[4,5-g]quinoline], for which, in experiment [1] (dose 1000 mcg/kg), the “% Rats exhibiting turning behaviour” value came to 100% and the “Average No. of turns per rat” value is recorded as 62 turns per rat.
As to `Br.Br.CCCN1CCC[C@H]2Cc3nc(N)sc3C[C@@H]21` (racemic) [n-Pr, NH2, 2HBr, trans (±), trans-(±)-2-amino-5-n-propyl-4,4a,5,6,7,8,8a,9-octahydrothiazolo[4,5-g]quinoline dihydrobromide], the “% Rats exhibiting turning behaviour” value in experiment [1] (dose 20 mcg/kg) came out at 0%; in experiment [1] (dose 100 mcg/kg), 78%. In addition, the “Average No. of turns per rat” value in experiment [1] (dose 100 mcg/kg) came out at 51 turns per rat.
For `CCCN1CCC[C@H]2Cc3nc(NC)sc3C[C@@H]21.Cl.Cl` (racemic) [n-Pr, NHCH3, 2HCl, trans (±), trans-(±)-2-methylamino-5-n-propyl-4,4a,5,6,7,8,8a,9-octahydrothiazolo[4,5-g]-quinoline dihydrochloride], the “% Rats exhibiting turning behaviour” value amounted to 75% in experiment [1] (dose 20 mcg/kg), 100% in experiment [1] (dose 100 mcg/kg) and 100% in experiment [1] (dose 1000 mcg/kg). In addition, the “Average No. of turns per rat” value in experiment [1] (dose 20 mcg/kg) is 27 turns per rat; in experiment [1] (dose 100 mcg/kg), 80 turns per rat; in experiment [1] (dose 1000 mcg/kg) it was 100 turns per rat.
Consider `CCCN1CCC[C@H]2Cc3nc(NC(C)=O)sc3C[C@@H]21` (racemic) [n-Pr, NHCOCH3, FB, trans-(±), Trans-(±)-2-acetylamino-5-n-propyl-4,4a,5,6,7,8,8a,9-octahydrothiazolo[4,5-g]quinoline], for which, in experiment [1] (dose 1000 mcg/kg), the “% Rats exhibiting turning behaviour” value worked out at 100% and the “Average No. of turns per rat” value came to 91 turns per rat.
For the compound `CCCN1CCC[C@@H]2Cc3nc(N)sc3C[C@H]21` [n-Pr, NH2, 2HCl, trans-(-), 4aR,8aR-2-amino-5-n-propyl-4,4a,5,6,7,8,8a,9-octahydrothiazolo[4,5-g]quinoline], the “% Rats exhibiting turning behaviour” value is listed as 100% in experiment [1] (dose 20 mcg/kg), 80% in experiment [1] (dose 100 mcg/kg) and 100% in experiment [1] (dose 1000 mcg/kg). In addition, the “Average No. of turns per rat” value in experiment [1] (dose 20 mcg/kg) is on record as 37 turns per rat; in experiment [1] (dose 100 mcg/kg) it was 102 turns per rat; in experiment [1] (dose 1000 mcg/kg), 109 turns per rat.

The record behind these values is US4537893A, “Octahydrothiazolo[4,5-g]quinolines and use as prolactin secretion inhibitors” (Eli Lilly and Company, priority 1984, dated 1985).
